Converted amounts (≈) assume the structure as drawn.
How the values were obtained:
EGFR tyrosine kinase = EGFR tyrosine kinase (Homo sapiens, UniProt P00533); assay: EGFR tyrosine kinase inhibition in vitro (Invitrogen EGFR inhibitor screening kit PV3193)
Text: The inhibitory activities of EGFR tyrosine kinase in vitro
Erlotinib hydrochloride was used as a positive control drug.

Acute Toxicity Study = conditions: in vivo; preliminary screening, Bliss statistical method
Protocol: The acute toxicity experiments were carried out according to the methods disclosed in the book of Modern Pharmacological Methods, edited chiefly by Zhang Jun-Tian.

[1] = tested on: K562 human chronicity marrow leukemic cells; assay: Tumor cell inhibition ratio, CCK-8 kit, K562; conditions: K562, read-out: Antiproliferative effect (inhibition ratio) K562
Text: (§3) The inhibitory activities of the compounds on tumor cells in vitro

[2] = tested on: PANC-1 human pancreatic cancer cells; assay: Tumor cell inhibition ratio, CCK-8 kit, PANC-1; conditions: PANC-1, read-out: Antiproliferative effect (inhibition ratio) PANC-1
Text: as §3

[3] = tested on: K562 human chronicity marrow leukemic cells; assay: Tumor cell IC50, CCK-8 kit, K562; format: cell-based
Text: (§1) The inhibitory activities of the compounds on tumor cells (IC50) in vitro
(§2) The IC50 (IC50, unit: μg/ml) values of the compounds on Hut78 T-Lymphocytic Leukemia cells, Jurkat E6-1 human T-cell lymphoma, PANC-1 human pancreatic cancer cells, A549 human lung cancer cells, K562 human chronicity marrow leukemic cells, Hep3B2. 1-7 human hepatoma carcinoma cells, MDA-MB-435s human breast carcinoma cells, Colo320 human rectal cancer cells, PC-3 human carcinoma of prostate, and HepG2 human hepatoma carcinoma cells were determined using a CCK-8 kit. Erlotinib hydrochloride was used as the positive control drug.

[4] = tested on: PANC-1 human pancreatic cancer cells; assay: Tumor cell IC50, CCK-8 kit, PANC-1; format: cell-based; conditions: PANC-1 cells
Text: as §1, §2

[5] = tested on: PC-3 human carcinoma of prostate; assay: Tumor cell IC50, CCK-8 kit, PC-3; format: cell-based; conditions: PC-3 cells
Text: as §1, §2

[6] = tested on: Hep3B2.1-7 human hepatoma carcinoma cells; assay: Tumor cell inhibition ratio, CCK-8 kit, Hep3B; conditions: read-out: Antiproliferative effect (inhibition ratio) Hep3B
Text: as §3

[7] = tested on: Colo320 human rectal cancer cells; assay: Tumor cell inhibition ratio, CCK-8 kit, Colo320; conditions: COLO 320, read-out: Antiproliferative effect (inhibition ratio) Colo320
Text: as §3

[8] = tested on: PC-3 human carcinoma of prostate; assay: Tumor cell inhibition ratio, CCK-8 kit, PC-3; conditions: read-out: Antiproliferative effect (inhibition ratio) PC-3
Text: as §3

[9] = tested on: MDA-MB-435s human breast carcinoma cells; assay: Tumor cell inhibition ratio, CCK-8 kit, MDA-MB-435s; conditions: read-out: Antiproliferative effect (inhibition ratio) 435s
Text: as §3

aurora kinase B = molecular target: T1, aurora kinase B (Homo sapiens, UniProt Q96GD4); assay: Aurora kinase B inhibition in vitro (Invitrogen aurora kinase screening kit PV3174); format: biochemical
T1 construct: purchased Invitrogen PV3174
T1 sequence (Q96GD4 whole entry): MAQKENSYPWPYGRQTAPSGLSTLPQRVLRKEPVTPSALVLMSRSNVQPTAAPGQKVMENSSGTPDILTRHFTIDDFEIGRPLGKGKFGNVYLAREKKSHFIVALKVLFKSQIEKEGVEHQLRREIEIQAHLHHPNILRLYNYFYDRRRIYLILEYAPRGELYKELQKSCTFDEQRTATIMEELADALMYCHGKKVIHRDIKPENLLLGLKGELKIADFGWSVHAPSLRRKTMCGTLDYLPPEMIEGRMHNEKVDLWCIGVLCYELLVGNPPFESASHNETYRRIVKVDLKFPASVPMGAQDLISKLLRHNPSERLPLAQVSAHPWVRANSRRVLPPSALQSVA

[10] = tested on: Colo320 human rectal cancer cells; assay: Tumor cell IC50, CCK-8 kit, Colo320; format: cell-based; conditions: COLO 320
Text: as §1, §2

[11] = tested on: Jurkat E6-1 human T-cell lymphoma; assay: Tumor cell inhibition ratio, CCK-8 kit, Jurkat E6-1; conditions: Jurkat E6.1, read-out: Antiproliferative effect (inhibition ratio) E6-1
Text: as §3

[12] = tested on: Hut78 T-Lymphocytic Leukemia cells; assay: Tumor cell inhibition ratio, CCK-8 kit, Hut78; conditions: Homo sapiens, HuT78, read-out: Antiproliferative effect (inhibition ratio) Hut-78
Text: as §3

[13] = tested on: A549 human lung cancer cells; assay: Tumor cell inhibition ratio, CCK-8 kit, A549; conditions: A549, read-out: Antiproliferative effect (inhibition ratio) A549
Text: as §3

[14] = tested on: Hut78 T-Lymphocytic Leukemia cells; assay: Tumor cell IC50, CCK-8 kit, Hut78; format: cell-based; conditions: Homo sapiens, Hut-78 cells
Text: as §1, §2

[15] = tested on: A549 human lung cancer cells; assay: Tumor cell IC50, CCK-8 kit, A549; format: cell-based
Text: as §1, §2

[16] = tested on: Hep3B2. 1-7 human hepatoma carcinoma cells; assay: Tumor cell IC50, CCK-8 kit, Hep3B; format: cell-based
Text: as §1, §2

[17] = tested on: Jurkat E6-1 human T-cell lymphoma; assay: Tumor cell IC50, CCK-8 kit, Jurkat E6-1; format: cell-based; conditions: E6-1 cells
Text: as §1, §2

[18] = tested on: MDA-MB-435s human breast carcinoma cells; assay: Tumor cell IC50, CCK-8 kit, MDA-MB-435s; format: cell-based; conditions: 435s cells
Text: as §1, §2

Chain of EGFR tyrosine kinase (P00533 25-1210): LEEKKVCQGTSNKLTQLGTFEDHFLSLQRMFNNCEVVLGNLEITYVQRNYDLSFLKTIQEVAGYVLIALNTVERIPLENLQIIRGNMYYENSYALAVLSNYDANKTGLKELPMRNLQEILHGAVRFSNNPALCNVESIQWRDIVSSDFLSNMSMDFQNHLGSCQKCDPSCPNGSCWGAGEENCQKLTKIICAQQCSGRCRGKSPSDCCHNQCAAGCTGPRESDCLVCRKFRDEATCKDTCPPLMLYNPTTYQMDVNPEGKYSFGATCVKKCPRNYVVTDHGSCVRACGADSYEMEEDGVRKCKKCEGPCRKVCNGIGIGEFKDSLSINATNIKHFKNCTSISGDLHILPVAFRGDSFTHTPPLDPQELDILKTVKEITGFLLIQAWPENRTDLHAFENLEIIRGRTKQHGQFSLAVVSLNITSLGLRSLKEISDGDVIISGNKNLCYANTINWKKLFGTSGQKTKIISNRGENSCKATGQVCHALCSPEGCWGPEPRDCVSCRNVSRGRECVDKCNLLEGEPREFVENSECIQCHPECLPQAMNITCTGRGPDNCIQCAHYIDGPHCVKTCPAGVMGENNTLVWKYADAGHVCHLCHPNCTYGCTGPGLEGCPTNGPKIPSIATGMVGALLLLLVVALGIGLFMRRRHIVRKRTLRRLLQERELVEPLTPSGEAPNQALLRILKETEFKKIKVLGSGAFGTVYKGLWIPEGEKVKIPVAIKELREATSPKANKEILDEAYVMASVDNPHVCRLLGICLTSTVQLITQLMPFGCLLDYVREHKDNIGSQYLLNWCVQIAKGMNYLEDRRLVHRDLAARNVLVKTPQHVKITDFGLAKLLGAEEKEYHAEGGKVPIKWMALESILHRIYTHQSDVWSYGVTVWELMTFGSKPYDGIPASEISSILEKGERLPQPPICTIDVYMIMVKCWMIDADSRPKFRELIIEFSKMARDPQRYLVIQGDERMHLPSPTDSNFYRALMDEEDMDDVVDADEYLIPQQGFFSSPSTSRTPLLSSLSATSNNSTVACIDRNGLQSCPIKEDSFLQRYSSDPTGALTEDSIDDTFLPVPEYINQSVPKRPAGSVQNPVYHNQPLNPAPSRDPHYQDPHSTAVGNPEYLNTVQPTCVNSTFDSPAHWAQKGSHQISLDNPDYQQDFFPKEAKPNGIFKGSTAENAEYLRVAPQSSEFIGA

| Compound | The inhibition ratio of the compound on EGFR(%) (EGFR tyrosine kinase; 40 μM) | The inhibition ratio of the compound on EGFR(%) (EGFR tyrosine kinase; 200 μM) | inhibition at 10 µM [1] | inhibition at 100 µM [1] | inhibition at 10 µM [2] | inhibition at 100 µM [2] | IC50 [3] | IC50 [4] | IC50 [5] | inhibition at 10 µM [6] | inhibition at 100 µM [6] | inhibition at 10 µM [7] | inhibition at 100 µM [7] | inhibition at 10 µM [8] | inhibition at 100 µM [8] | inhibition at 10 µM [9] | inhibition at 100 µM [9] | The inhibition ratio of the compound on Aurora B(%) (aurora kinase B; 40 μM) | The inhibition ratio of the compound on Aurora B(%) (aurora kinase B; 200 μM) | IC50 [10] | also measured |
| --- | --- | --- | --- | --- | --- | --- | --- | --- | --- | --- | --- | --- | --- | --- | --- | --- | --- | --- | --- | --- | --- |
| COCCOc1cc2c(cc1OCCOC)C1=Nc3cc(Cl)ccc3CN1C=N2 [Compound V-15, 11-chloro-2,3-bis(2-methoxyethoxy)-8H-quinazolino[4,3-b]quinazoline] | 60.7% | 94.0% | 45.2% | 91.5% | 61.8% | 94.1% | 1.5 µg/mL (≈ 3.61 µM) | 8.32 µg/mL (≈ 20 µM) | 24.6 µg/mL (≈ 59.2 µM) | 52.4% | 97.4% | 58.3% | 96.5% | 42.4% | 81.3% | 72.6% | 92% | 58.7% | 92.5% | 55.6 µg/mL (≈ 134 µM) | LD50 (Acute Toxicity Study): 2970 mg/kg; inhibition at 10 µM [11]: 69.5%; inhibition at 100 µM [11]: 85.8%; inhibition at 10 µM [12]: 61%; inhibition at 100 µM [12]: 93.2%; inhibition at 10 µM [13]: 75.6%; inhibition at 100 µM [13]: 90.8%; IC50 [14]: 14.3 µg/mL (≈ 34.5 µM); IC50 [15]: 1.01 µg/mL (≈ 2.43 µM); IC50 [16]: 6.91 µg/mL (≈ 16.6 µM); IC50 [17]: 5.72 µg/mL (≈ 13.8 µM); IC50 [18]: 21 µg/mL (≈ 50.5 µM) |
| COCCOc1cc2c(cc1OCCOC)C1=Nc3cc(Cl)ccc3C(C)N1C=N2.O=C(O)CC(O)C(=O)O (stereo not shown) [Compound V-22, 11-chloro-8-methyl-2,3-bis(2-methoxyethoxy)-8H-quinazolino[4,3-b]quinazoline malate] | 63.2% | 95.6% | 23.1% | 88.8% | 60.9% | 95.4% | 19.6 µg/mL | 84.3 µg/mL | 7.69 µg/mL | 62.3% | 90.7% | 43.8% | 99% | 64% | 97% | 63.4% | 94.1% | 57.2% | 95.6% | 4.67 µg/mL | LD50 (Acute Toxicity Study): 1340 mg/kg; inhibition at 10 µM [11]: 67%; inhibition at 100 µM [11]: 98%; inhibition at 10 µM [12]: 54.1%; inhibition at 100 µM [12]: 94.6%; inhibition at 10 µM [13]: 54.6%; inhibition at 100 µM [13]: 96.2%; IC50 [14]: 11.4 µg/mL; IC50 [15]: 9.87 µg/mL; IC50 [16]: 14.4 µg/mL; IC50 [17]: 13.3 µg/mL; IC50 [18]: 6.18 µg/mL |
| CS(=O)(=O)CCNCc1ccc(-c2ccc3c(c2)C2=Nc4ccc(OCc5cccc(F)c5)c(Cl)c4CN2C=N3)o1 [Compound V-33, N-((5-(9-chloro-10-(3-fluorobenzyloxy)-8H-quinazolino[4,3-b]quinazoline-2-yl)furan-2-yl)methyl)-2-(methylsulfonyl)ethylamine] | 64.3% | 97.9% | 40.5% | 86% | 50.3% | 88% | 62.6 µg/mL (≈ 105 µM) | 1.97 µg/mL (≈ 3.32 µM) | 40.7 µg/mL (≈ 68.6 µM) | 51.3% | 86.5% | 61.6% | 96.3% | 16.5% | 78.2% | 62.7% | 99.5% | 54.6% | 93.7% | 7.83 µg/mL (≈ 13.2 µM) | LD50 (Acute Toxicity Study): 2840 mg/kg; inhibition at 10 µM [11]: 41.6%; inhibition at 100 µM [11]: 90.8%; inhibition at 10 µM [12]: 61%; inhibition at 100 µM [12]: 92.8%; inhibition at 10 µM [13]: 48.1%; inhibition at 100 µM [13]: 86.1%; IC50 [14]: 13.4 µg/mL (≈ 22.6 µM); IC50 [15]: 0.05 µg/mL (≈ 0.0843 µM); IC50 [16]: 22.7 µg/mL (≈ 38.3 µM); IC50 [17]: 15.4 µg/mL (≈ 25.9 µM); IC50 [18]: 10.3 µg/mL (≈ 17.4 µM) |
| COCCOc1cc2c(cc1OCCOC)C1=Nc3cccc(Br)c3CN1C=N2.Cl [Compound V-2, 9-bromo-2,3-bis(2-methoxyethoxy)-8H-quinazolino[4,3-b]quinazoline hydrochloride hemihydrate] | 62.9% | 97.9% | 65.4% | 91.1% | 59.7% | 95.9% | 34 µg/mL | 0.11 µg/mL | 4.78 µg/mL | 53.5% | 90% | 57% | 89.6% | 72.2% | 92.7% | 59.8% | 82.6% | 53.2% | 95.8% | 32.3 µg/mL | LD50 (Acute Toxicity Study): 2050 mg/kg; inhibition at 10 µM [11]: 56.2%; inhibition at 100 µM [11]: 83.1%; inhibition at 10 µM [12]: 28.9%; inhibition at 100 µM [12]: 73.8%; inhibition at 10 µM [13]: 68.6%; inhibition at 100 µM [13]: 90.7%; IC50 [14]: 61.1 µg/mL; IC50 [15]: 0.67 µg/mL; IC50 [16]: 9.83 µg/mL; IC50 [17]: 15.3 µg/mL; IC50 [18]: 0.42 µg/mL |
| COCCOc1cc2c(cc1OCCOC)C1=Nc3cccc(NC(C)=O)c3CN1C=N2 [Compound V-11, N-{2,3-bis(2-methoxyethoxy)-8H-quinazolino[4,3-b]quinazoline}acetamide] | 56.4% | 85.6% | 50.5% | 86% | 57.9% | 91.3% | 40.6 µg/mL (≈ 92.6 µM) | 6.72 µg/mL (≈ 15.3 µM) | 36.8 µg/mL (≈ 83.9 µM) | 57.1% | 82.8% | 41.6% | 96.3% | 55.1% | 89.7% | 41% | 89.5% | 53.5% | 96.7% | 34.6 µg/mL (≈ 78.8 µM) | inhibition at 10 µM [11]: 41.6%; inhibition at 100 µM [11]: 90.8%; inhibition at 10 µM [12]: 31%; inhibition at 100 µM [12]: 72.8%; inhibition at 10 µM [13]: 63.1%; inhibition at 100 µM [13]: 99.2%; IC50 [14]: 26.8 µg/mL (≈ 61.1 µM); IC50 [15]: 4.64 µg/mL (≈ 10.6 µM); IC50 [16]: 26.1 µg/mL (≈ 59.5 µM); IC50 [17]: 39.9 µg/mL (≈ 90.9 µM); IC50 [18]: 6.79 µg/mL (≈ 15.5 µM) |
| COCCOc1cc2c(cc1OCCOC)C1=Nc3cccc(O)c3CN1C=N2 [Compound V-8, 9-hydroxy-2,3-bis(2-methoxyethoxy)-8H-quinazolino[4,3-b]quinazoline] | 52.3% | 95.6% | 52.4% | 92.2% | 41.5% | 89.8% | 63.1 µg/mL (≈ 159 µM) | 21.2 µg/mL (≈ 53.3 µM) | 9.9 µg/mL (≈ 24.9 µM) | 52.4% | 87.3% | 64.5% | 94.8% | 45.2% | 94% | 55% | 93.7% | 32.3% | 96.4% | 29.8 µg/mL (≈ 74.9 µM) | inhibition at 10 µM [11]: 44%; inhibition at 100 µM [11]: 85.4%; inhibition at 10 µM [12]: 35.6%; inhibition at 100 µM [12]: 75.9%; inhibition at 10 µM [13]: 52.8%; inhibition at 100 µM [13]: 80%; IC50 [14]: 53.1 µg/mL (≈ 134 µM); IC50 [15]: 30 µg/mL (≈ 75.5 µM); IC50 [16]: 33.1 µg/mL (≈ 83.4 µM); IC50 [17]: 8.11 µg/mL (≈ 20.4 µM); IC50 [18]: 27.6 µg/mL (≈ 69.5 µM) |

— patent US20110288086A1, “POLYCYCLIC QUINAZOLINES, PREPARATION THEREOF, AND USE THEREOF” (priority 2010, published 2011)
